Laboratory results taken from patent US20130178517A1, “Methods And Compositions For Treatment Of Lipogenic Virus Related Conditions” (priority 2010, published 2013).
“Also recorded” adds a separate entry of the source.

Legend:
Ad-36 in preadipocytes = conditions: preadipocytes in tissue culture; cited from earlier work
[1] = test system: FAS protein in 3T3-L1 cells; assay: FAS protein expression (Western blot) in 3T3-L1 preadipocyte cells with MDI and Ad-36; format: cell-based, mouse; conditions: for FAS protein as dosage is increased: 3T3-L1 preadipocyte cells (FIG. 9 as described)
Procedure: The effects of Tridox on FAS protein expression were evaluated in 3T3-L preadipocyte cells. Control cells were maintained without exposure to Ad-36 or to the differentiation cocktail of methyl-isobutyl-xanthine, dexamethasone, and insulin (MDI). See, e.g., Ntambi and CheulKim, J. Nutrition, 120: […] for description of MDI differentiation cocktail.

[2] = test system: FAS protein in MCF-7 cells infected with Ad-36; assay: FAS protein expression (Western blot) in MCF-7 cells infected with Ad-36; format: cell-based, human; conditions: Ad-36-infected MCF-7 cells; for FAS protein expression: vs infected untreated control; for amount of FAS protein: range of 10 uM/L to 100 uM/L (FIG. 8)
Procedure: MCF-7 cells were incubated with Adv36 and a range of 10 uM/L to 100 uM/L of Didox or Tridox.
Human breast cancer cells (MCF-7) were infected with Ad-36 virus and treated with antiviral compounds Didox or Tridox. MCF-7 cells were incubated with Ad-36 and a range of about 10 μM/L to about 100 μM/L of Didox or Tridox. The control for the experiments was MCF-7 cells infected with Ad-36 that were not treated with an antiviral compound. Fifty micrograms of protein was loaded per lane on an SDS-PAGE gel, followed by Western blot analysis detecting FAS.

Ad-36 [3] = assay: Replication of Ad-36 in A549 cells assessed by cytopathic effect (CPE); format: cell-based, human adenovirus 36 in human A549 cells; conditions: multiple different doses, 100 TCID/well, CPE 3 and 4 days post-infection
Procedure: A549 cells were infected with a fixed amount of Ad-36 (100 TCID/well) for 2 hours, then media containing the virus was removed, replaced with serial dilutions of metformin, luteolin, or a combination. Cytopathic effect (CPE) was evaluated 3 days and 4 days post-infection (PI). Each condition had 8 wells. The efficacy of the different drug treatments was evaluated by determining whether there were fewer wells with CPE as compared to the control condition for the different treatment conditions, which reflected the degree to which a particular treatment was working to inhibit the virus.

[4] = test system: phosphorylated Akt in MCF-10A cells; assay: Akt phosphorylation (Western blot) in MCF-10A cells with or without Ad-36 infection; format: cell-based, human
Procedure: MCF-10A cells were infected with Ad-36 and treated with luteolin and/or metformin, then Akt phosphorylation was measured using Western blot. The top band is phosphorylated Akt. […] Lane 2 is MCF-10A cells infected with Ad-36 virus. Lane 3 is metformin, MCF-10A cells infected with Ad-36 virus. Lane 4 is uninfected MCF-10A cells treated with metformin. Lane 5 is MCF-10A cells infected with Ad-36 virus and treated with luteolin. Lane 6 is uninfected MCF-10A cells treated with luteolin. Lane 7 is MCF-10A cells infected with Ad-36 and treated with a combination of metformin and luteolin. Lane 8 is uninfected MCF-10A cells treated with a combination of metformin and luteolin.

[5] = test system: MCF-10A cells infected with Ad-36; assay: Growth rate (cell count) of MCF-10A cells infected with Ad-36; format: cell-based, human; conditions: 5 μM
Procedure: FIG. 11 is a graph showing that luteolin reduces the growth rate of MCF-10A cells infected with Ad-36. […] Over a time course, cells were trypsinized and counted using a hemocytometer. As illustrated, ⋄ refers to mock infected cells incubated without luteolin; □ refers to mock infected cells treated with luteolin; Δ refers to Ad-36-infected cells incubated without luteolin; and × refers to Ad-36-infected cells treated with luteolin.
Luteolin reduces the growth rate of […] (MCF-10A) that have been infected with Ad-36 in tissue culture (FIG. 11). MCF-10A cells were infected with a multiplicity of infection (MOI) of 0.5 at day 0 for 2 hours, then replaced with fresh medium containing 5 μM luteolin or vehicle. At each time period, cells were trypsinzed and counted using a hemocytometer. Fresh luteolin (5 μM) was added on day 0 (after infection), day 3 and day 5 in order to insure a constant concentration of agent. […] The cells infected with Ad-36 and not exposed to luteolin had the highest growth rate, faster than cells without Ad-36. When luteolin is added, cell growth is slowed.

Ad-36 [6] = assay: TCID50 of A549 cells exposed to Ad-36; format: cell-based, human adenovirus 36 in human A549 cells
Procedure: “TCID50” refers to 50% tissue culture infective dose (TCID50), an endpoint dilution assay that quantifies the amount of virus required to kill 50% of infected hosts or to produce a cytopathic effect in 50% of inoculated tissue culture cells.
The experimental conditions were assessed: (A) Control condition in which cells were infected with the virus throughout incubation, no luteolin added; (B) Cells and virus were both pretreated with luteolin, then the cells were incubated with both the virus and luteolin; and (C) Cells pretreated with luteolin only, luteolin removed, then cells incubated with virus but without luteolin. The TCID50 value was calculated for each group.

[7] = MCF-10A cells infected with Ad-36 and treated
[8] = uninfected MCF-10A cells treated

| Structure (SMILES) | FAS protein as dosage is increased [1] | FAS protein expression ([2]; about 50 μM) | FAS protein expression ([2]; about 100 μM) | amount of FAS protein [2] | effect of Ad-36 on A549 cells (CPE, replication) (Ad-36 [3]) | Akt phosphorylation [4, 7] | Akt phosphorylation [4, 8] | further results |
| --- | --- | --- | --- | --- | --- | --- | --- | --- |
| Nc1ccn(C[C@@H](CO)OCP(=O)(O)O)c(=O)n1 [Cidofovir] |  |  |  |  |  |  |  | lipogenic effect of Ad-36 (Ad-36 in preadipocytes): block the lipogenic effect |
| O=C(NO)c1ccc(O)c(O)c1 [Didox, 3,4 dihydrobezohydoxamic acid] | decreased | decrease | decrease | decreased |  |  |  |  |
| NC(=NO)c1cc(O)c(O)c(O)c1 [Tridox, 3,4,5 trihydroxybenzamidoxime] | decreased | decrease | decrease | decreased |  |  |  | infection with Ad-36 (conclusion from FAS data) ([1]; 3T3-L1 cells): inhibits infection with Ad-36; FAS protein levels ([1]; 3T3-L1 cells exposed to Ad-36 in media containing 10 μM): even lower; FAS expression ([1]; 3T3-L1 cells infected with Ad-36, then incubated with MDI and 10 μM): modest decrease; FAS expression ([1]; 3T3-L1 cells pretreated with compound, then incubated with MDI and Ad-36): more marked decrease; also recorded: greater decrease; FAS protein expression ([2]; about 10 μM): decrease |
| O=c1cc(-c2ccc(O)c(O)c2)oc2cc(O)cc(O)c12 [luteolin] |  |  |  |  | inhibits | marked reduction | stimulated | growth rate (cell number) ([5]; Ad-36-infected (MOI 0.5) MCF-10A cells): slowest growth rate; also recorded: slow growth rate; cell growth when compound is added ([5]; MCF-10A cells): slowed; virulence of Ad-36 infection / Ad-36 infection (Ad-36 [6]; A549 cells, overall conclusion): blocks virulence; also recorded: inhibits Ad-36 infection; TCID50 value (Ad-36 [6]; Group B: cells and virus pretreated with luteolin, then cells incubated with virus and luteolin, vs control): slightly higher than control; TCID50 value (Ad-36 [6]; Group C: cells pretreated with luteolin only, luteolin removed, then incubated with virus): lowest and low; TCID value (Ad-36 [6]; second experiment (not shown), same condition as Group B, vs control): increased almost twice as much as the control value |
| CN(C)C(=N)N=C(N)N [metformin] |  |  |  |  | inhibits | marked reduction | stimulated |  |
